In the supplement of paper PMC10307832 one finds relative viability data, which are given here for 1 cell line.

What all share (experiment): relative viability (nuclei count vs DMSO), 5 days (fraction); higher = more cells survive
Compound in assay [1]: CC1=C(C(=NN1)C)CC2=C(C3=C(S2)N(C(=O)N(C3=O)C)CC(C)C)C(=O)N4C[C@@H](CO4)O + CC(=O)c1c(C)c2cnc(Nc3ccc(N4CCNCC4)cn3)nc2n(C2CCCC2)c1=O [Palbociclib] (partner 0.5 µM)
The essentials:
(§1)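 A single step with final 0.05% Triton X-100, 1% formaldehyde and 1 ug/ml Hoechst fixed the cells and stained nuclei 5 days after treatment. Lung cancer cell lines in 1536-well plates had been treated by pin tool the day after seeding with one drug alone or a fixed anchor-drug dose plus five library-drug doses (not always all listed) in √10 steps, and nuclei were counted on 4× images. Relative viability is the ratio of nuclei in treated wells to nuclei in vehicle wells, taken as the median of duplicate plates.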

Compound in assay [2]: CC1=C(C(=NN1)C)CC2=C(C3=C(S2)N(C(=O)N(C3=O)C)CC(C)C)C(=O)N4C[C@@H](CO4)O + CCNC(=O)c1noc(-c2cc(C(C)C)c(O)cc2O)c1-c1ccc(CN2CCOCC2)cc1 [Luminespib] (partner 0.01 µM)
The essentials:
as §1

Compound in assay [3]: CC1=C(C(=NN1)C)CC2=C(C3=C(S2)N(C(=O)N(C3=O)C)CC(C)C)C(=O)N4C[C@@H](CO4)O + Cc1nc(NC(=O)N2CCC[C@H]2C(N)=O)sc1-c1ccnc(C(C)(C)C(F)(F)F)c1 [Alpelisib] (partner 2 µM)
The method in brief:
as §1

Compound in assay [4]: CC1=C(C(=NN1)C)CC2=C(C3=C(S2)N(C(=O)N(C3=O)C)CC(C)C)C(=O)N4C[C@@H](CO4)O + N=C(N)NC(=N)NCCc1ccccc1 [Phenformin] (partner 250 µM)
The method in brief: as §1

In the case of UMC-11, the relative viability is 0.333 in assay [1] (first compound 0.0025 µM); 0.31 in assay [1] (first compound 0.007906 µM); 0.296 in assay [1] (first compound 0.025 µM); 0.29 in assay [1] (first compound 0.07906 µM); 0.339 in assay [1] (first compound 0.25 µM); 1.06 in assay [2] (first compound 0.0025 µM). The relative viability in assay [2] (first compound 0.007906 µM) was 1.33; in assay [2] (first compound 0.025 µM), 0.959; in assay [2] (first compound 0.07906 µM) it was 1.08; in assay [2] (first compound 0.25 µM), 1.13; in assay [3] (first compound 0.0025 µM), 1.03; in assay [3] (first compound 0.007906 µM), 0.897. In addition, the relative viability in assay [3] (first compound 0.025 µM) is 0.75; in assay [3] (first compound 0.07906 µM), 0.986; in assay [3] (first compound 0.25 µM), 0.977; in assay [4] (first compound 0.0025 µM), 0.168; in assay [4] (first compound 0.007906 µM) it was 0.195; in assay [4] (first compound 0.025 µM) it was 0.156. For the same cell line, the figures for the relative viability in assay [4] (first compound 0.07906 µM) and in assay [4] (first compound 0.25 µM) were 0.17 and 0.188, respectively.
